Data on eight compounds can be found in patent US4185152A, “Thiazolidinyl alkoxy pyridines” (Warner-Lambert Company, priority 1971, dated 1980).

Read-outs that look alike come from different tables or passages of the source.

Data set [1] deals with mice exposed to X-ray or gamma ray radiation. As to the kind of experiment: antiradiation test, 30-day survival of irradiated mice. In kind it is in vivo. Conditions: Mus musculus, light or radiation study, ip, i.p., 950 R cobalt-60 gamma or 825 R X-ray, read-out: Survival (30 days). An excerpt: The compounds of the invention are new chemical compounds that are useful as pharmacological agents, especially as antiradiation agents that are active in protecting against the effects of exposure to X-ray or gamma ray radiation.
In this table, the activity of each compound is expressed in terms of the percentage of animals that survived (30 days) the exposure to radiation at the given dose. The dose given is generally the lowest dose at which a high rate of survival was obtained. Administration was by the intraperitoneal route. Except where indicated otherwise, each compound was administered as the monohydrochloride salt to a test group consisting of 15 mice. The radiation dose was either 950 Roentgens supplied by a cobalt-60 gamma ray source or 825 Roentgens from an X-ray source.

Data set [2] is described as follows: approximate LD50 (acute toxicity, antiradiation activity table). Conditions: mouse, in vivo, ip, mice, intraperitoneal.
Setting [3] is: 0.5 h, pre-irradiation time 30 min., 15 mice, monohydrochloride.
Where [4] appears, read: 0.25 h, pre-irradiation time 15 min., 15 mice, monohydrochloride.

What is called LD50 is the dose expected to kill half of the subjects tested. For `Cl.Ic1ccc(OCCCCCCCN2CCSC2)nc1` [I 7, 5-Iodo-2-{[7-(3-thiazolidinyl)heptyl]oxy}-pyridine, monohydrochloride], in data set [1] (setting [3]), the responders at 100 mg/kg is 47%. The LD50 in data set [2] (monohydrochloride salt) is roughly 200 mg/kg.

Consider `Brc1ccc(OCCCN2CCSC2)nc1.Cl` [Br 3, 5-bromo-2-[3-(3-thiazolidinyl)propoxy]pyridine, monohydrochloride], for which the responders at 100 mg/kg in data set [1] (setting [4]) was 33%. The LD50 in data set [2] (monohydrochloride salt) is roughly 250 mg/kg.

Turning to `Cl.Ic1ccc(OCCCCCN2CCSC2)nc1` [I 5, 5-Iodo-2-{[5-(3-thiazolidinyl)pentyl]oxy}-pyridine, monohydrochloride], the responders at 100 mg/kg in data set [1] (setting [3]) is 93%. The LD50 in data set [2] (monohydrochloride salt) is roughly 230 mg/kg.

As for `Cl.Cl.Clc1ccc(OCCCCCN2CCSC2)nc1` [Cl 5, 5-Chloro-2-{[5-(3-thiazolidinyl)pentyl]-oxy}pyridine, dihydrochloride], the responders at 80 mg/kg in data set [1] (0.25 h, pre-irradiation time 15 min., 15 mice, dihydrochloride) was 87%; in data set [1] (0.5 h, pre-irradiation time 30 min., 15 mice, dihydrochloride) it was 93%. Moreover, the LD50 in data set [2] (dihydrochloride salt) is roughly 160 mg/kg.

Regarding `Cc1ccc(OCCCCCN2CCSC2)nc1` [CH3 5, 5-methyl-2-{[5-(3-thiazolidinyl)pentyl]-oxy}pyridine], the responders at 70 mg/kg in data set [1] (0.5 h, dose 70 mg./kg., pre-irradiation time 30 min., 15 mice, dihydrochloride) is 33%. In addition, the median lethal dose (LD50) in data set [2] (dihydrochloride salt) is roughly 190 mg/kg.

On to `Brc1ccc(OCCCCCCCCN2CCSC2)nc1.Cl` [Br 8, 5-Bromo-2-{[8-(3-thiazolidinyl)octyl]oxy}-pyridine, monohydrochloride], for which, in data set [1] (0.5 h, dose 50 mg./kg., pre-irradiation time 30 min., 15 mice, monohydrochloride), the responders at 50 mg/kg turned out to be 20%. Also, the LD50 in data set [2] (monohydrochloride salt) is roughly 230 mg/kg.

As for `Cl.Ic1ccc(OCCCCN2CCSC2)nc1` [I 4, 5-iodo-2-[4-(3-thiazolidinyl)-butoxy]pyridine, monohydrochloride], in data set [1] (setting [4]), the responders at 100 mg/kg came to 20%. Moreover, the 50% lethal dose (LD50) in data set [2] (monohydrochloride salt) was greater than 300 mg/kg.

Regarding `Brc1ccc(OCCCCCN2CCSC2)nc1.Cl` [Br 5, 5-Bromo-2-{[5-(3-thiazolidinyl)pentyl]oxy}-pyridine, monohydrochloride], the responders at 90 mg/kg in data set [1] (0.5 h, dose 90 mg./kg., pre-irradiation time 30 min., six mice, monohydrochloride) is 83%. Also, the responders at 180 mg/kg in data set [1] (0.5 h, dose 180 mg./kg., pre-irradiation time 30 min., six mice, monohydrochloride) is 100%. The LD50 in data set [2] (monohydrochloride salt) is roughly 240 mg/kg.
